Publication PMC7539200, “Glufosinate constrains synchronous and metachronous metastasis by promoting anti‐tumor macrophages” (EMBO Molecular Medicine, 2020)
Where two headings read alike, the source gives them in different places.

How the values were obtained:
[1] = molecular target: T1, human glutamine synthetase (hGS) (Homo sapiens, UniProt P15104); experiment: microtiter phosphate-release GS activity assay, Lineweaver-Burk and secondary plot; IC50 […]; assay type: biochemical
T1 construct: gene GLUL

[2] = molecular target: T1, human glutamine synthetase (hGS); experiment: as above; assay type: biochemical; remark: listed apart in the source

T1 sequence (P15104 2-373): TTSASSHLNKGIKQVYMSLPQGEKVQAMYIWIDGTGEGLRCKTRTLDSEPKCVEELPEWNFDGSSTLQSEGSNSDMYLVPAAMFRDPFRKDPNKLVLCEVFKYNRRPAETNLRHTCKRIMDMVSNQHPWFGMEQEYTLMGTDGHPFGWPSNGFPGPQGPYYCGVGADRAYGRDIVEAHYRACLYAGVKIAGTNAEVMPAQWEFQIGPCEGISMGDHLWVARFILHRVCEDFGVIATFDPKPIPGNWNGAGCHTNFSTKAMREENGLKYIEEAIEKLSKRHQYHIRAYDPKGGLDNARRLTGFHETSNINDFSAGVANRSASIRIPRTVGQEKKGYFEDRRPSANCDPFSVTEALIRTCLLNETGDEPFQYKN

Compound | Ki [1] [µM] | Ki [2] [µM]
CP(=O)(O)CCC(N)C(=O)O (centres unmarked) [Glufosinate] | ~19.5 | –
CS(=N)(=O)CCC(N)C(=O)O (centres unmarked) [Methionine sulfoximine] | – | 880
